The text below walks through data of PubChem BioAssay AID1053179 (The Scripps Research Institute Molecular Screening Center, 2014).

The source made the active and inactive calls.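 How the source made its calls: active means IC50 for loss of cell viability, measured as ATP drop, at or below 10 µM; inactive means the rest.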

This test deals with Jurkat viability, CellTiter-Glo ATP luminescence. Briefly: Jurkat T cell cytotoxicity, late-stage follow-up, cytotoxicity control for TAAR1 agonist/antagonist project, luminescence, powder samples (AID 1053179).
`Cc1ccc(C(=O)CCN2CCC(c3ccccc3)C2)cc1` (configuration not stated): the IC50 (as a rule, the concentration that gives 50% inhibition) is 5.06 µM.
Next, `N#Cc1c(C(F)(F)F)cc(-c2ccc(Cl)cc2)nc1SCC(=O)N1CCCC1`: > 83.3 µM (inactive); `N#Cc1c(C(F)(F)F)cc(-c2ccc(Cl)cc2)nc1SCC(=O)N1CCCCCC1`: > 83.3 µM (inactive); `COc1cc(C(=O)CCN2CCC(c3ccccc3)C2)cc(OC)c1OC` (configuration not stated): 7.06 µM.
`CC(CN1CCCC1Cc1ccccc1)C(=O)c1ccc2c(c1)OCCO2` (configuration not stated): the IC50 was 3.66 µM.
To `O=C(CCN1CCC(c2ccccc2)C1)c1ccccc1` (configuration not stated) belongs 3.95 µM; to `N#Cc1c(C(F)(F)F)cc(-c2ccc(Cl)cc2)nc1SCC(=O)Nc1ncccn1`, 53 µM (inactive).
